Assays:
Type in all cases: in vivo
[1] = test system: termite (Reticulitermes flavipes) workers; test: Test to Determine Termite Mortality by Applications of Combinations of Bifenthrin and Imidacloprid (soil column in glass tube)
Method: (§1) The compositions of the present invention were tested for termiticide activity in the following manner:
Test compositions made up of TALSTAR® TERMITICIDE/INSECTICIDE and a wettable powder of imidacloprid in distilled water were prepared that provided appropriate rates of application of combinations of bifenthrin and imidacloprid, as well as bifenthrin and imidacloprid alone.
(§2) Glass tubing, 13 mm in diameter, was then cut into 20 cm sections in sufficient quantity to conduct the test. Each […] section of tubing was marked at 5 cm, 8 cm, and 18 cm distances from one end of the tube designated as the bottom. Each section of tubing was packed with a sandy soil (3% wt/wt moisture content) by first placing a section of a 1 cm diameter wooden dowel into the bottom of the glass tube up to the 8 cm marking, then introducing approximately 2 cm of soil into the other end of the tube designated as the top. The soil was then gently packed into the tube from the top using a second section of the 1 cm diameter wooden dowel. The process was repeated using 2 cm aliquots of soil until the soil level was adjacent to the 18 cm marking, thereby providing a column of soil 10 cm in height. An agar plug, which was formed in a section of the 13 mm diameter glass tubing of the type used to conduct these tests, was cut into 3 cm sections. A 3 cm section of agar was then gently pushed into the bottom of each tube containing the soil until the agar plug firmly touched the soil at the 8 cm marking, thereby creating a 5 cm void in the bottom of each section of tubing. Following placement of the agar plugs in each section of tubing; two sections of applicator sticks cut in 6 cm lengths were inserted into the bottom end of each tube thereby forcing about 1 cm of each stick into the agar plug to hold the agar plug in place. Plastic caps, with an inside diameter of 13 mm and holes drilled in their centers, were placed on the bottom ends of each of the sections of tubing. A sharpened applicator stick was then inserted into the hole in each plastic cap through the agar plug to the intersection of the agar plug and the soil. The applicator stick was then gently removed in a rotating manner to provide a means for a free flow of liquid through the soil. Each section of tubing was then stood upright, and 0.5 mL aliquots of each suspension of bifenthrin, imidacloprid or combinations thereof, as prepared above, were pipetted onto the top of the soil. Upon application of the test suspensions the top of each section of tubing was covered with a small piece of aluminum foil. The tubes were then allowed to stand for about 20 hours to allow movement of the termiticide(s) downward into the soil. After this time a plastic cap of 13 mm inside diameter was placed on the top of each section of tubing. The plastic caps with the holes drilled in their centers were removed from the bottom of each section of tubing, and a piece of 0.5 cm×4 cm filter paper was then placed between the two sections of applicator sticks. Fifty termite (Reticulitermes flavipes) workers were then inserted into the 5 cm void in the bottom of each section of tubing. New plastic caps without holes drilled in their centers were placed on the bottom of each section of tubing. The sections of tubing were then stored in an upright position, with the termites located below the soil. Termite mortality was measured at 1 hour, 2 hours, 1 day, 2 days and 7 days after treatment.

[2] = test system: termite (Reticulitermes flavipes) workers; test: Test to Determine Termite Mortality by Applications of Combinations of Bifenthrin and Clothianadin (soil column in glass tube)
Method: as §1
Test compositions made up of TALSTAR® TERMITICIDE/INSECTICIDE and a wettable powder of clothianadin in distilled water were prepared that provided appropriate rates of application of combinations of bifenthrin and clothianadin, as well as bifenthrin and clothianadin alone.
as §2, with “clothianadin” for “imidacloprid”

[3] = test system: termite (Reticulitermes flavipes) workers; test: Test to Determine Termite Mortality by Applications of Combinations of Bifenthrin and Thiamethoxam (soil column in glass tube)
Method: as §1
Test compositions made up of TALSTAR® TERMITICIDE/INSECTICIDE and a wettable powder of thiamethoxam in distilled water were prepared that provided appropriate rates of application of combinations of bifenthrin and thiamethoxam, as well as bifenthrin and thiamethoxam alone.
as §2, with “thiamethoxam” for “imidacloprid”

[4] = Rate of Appln. 10 PPM (0.001 % by weight)
[5] = Rate of Appln. 50 PPM (0.005 % by weight)

Cc1c(COC(=O)[C@@H]2[C@H](/C=C(\Cl)C(F)(F)F)C2(C)C)cccc1-c1ccccc1 (racemic) [A, bifenthrin]
Mortality Rate @ 1 Day [1, 4]: 13%
Mortality Rate @ 1 Hour [1, 4]: 0%
Mortality Rate @ 2 Days [1, 4]: 24%
Mortality Rate @ 2 Hours [1, 4]: 0%
Mortality Rate @ 7 Days [1, 4]: 95%
Mortality Rate @ 1 Day [1, 5]: 21%
Mortality Rate @ 1 Hour [1, 5]: 0%
Mortality Rate @ 2 Days [1, 5]: 78%
Mortality Rate @ 2 Hours [1, 5]: 0%
Mortality Rate @ 7 Days [1, 5]: 100%
Mortality Rate @ 1 Day [2, 4]: 13%
Mortality Rate @ 1 Hour [2, 4]: 0%
Mortality Rate @ 2 Days [2, 4]: 24%
Mortality Rate @ 2 Hours [2, 4]: 0%
Mortality Rate @ 7 Days [2, 4]: 95%
Mortality Rate @ 1 Day [2, 5]: 21%
Mortality Rate @ 1 Hour [2, 5]: 0%
Mortality Rate @ 2 Days [2, 5]: 78%
Mortality Rate @ 2 Hours [2, 5]: 0%
Mortality Rate @ 7 Days [2, 5]: 100%
Mortality Rate @ 1 Day [3, 4]: 3%
Mortality Rate @ 1 Hour [3, 4]: 0%
Mortality Rate @ 2 Days [3, 4]: 5%
Mortality Rate @ 2 Hours [3, 4]: 0%
Mortality Rate @ 7 Days [3, 4]: 100%
Mortality Rate @ 1 Day [3, 5]: 10%
Mortality Rate @ 1 Hour [3, 5]: 0%
Mortality Rate @ 2 Days [3, 5]: 65%
Mortality Rate @ 2 Hours [3, 5]: 0%
Mortality Rate @ 7 Days [3, 5]: 100%

— patent US20180249714A1, “Liquid Termiticide Compositions of Pyrethroids and Neonicitinoids” (FMC Corporation, priority 2004, published 2018)
